{"source": "paper PMC9939005", "about": "(Journal of medicinal chemistry, 2022)", "key": {"[1]": {"test": "Parallel Artificial Membrane Permeation Assay", "settings": "for PAMPA permeability, in words: PAMPA values close or equal to 0; for Papp at 18 h: pH 7.4"}, "JAK2 JH2 WT": {"biological_target": "JAK2 JH2 WT (Homo sapiens, UniProt O60674)", "sequence (O60674 536-812)": "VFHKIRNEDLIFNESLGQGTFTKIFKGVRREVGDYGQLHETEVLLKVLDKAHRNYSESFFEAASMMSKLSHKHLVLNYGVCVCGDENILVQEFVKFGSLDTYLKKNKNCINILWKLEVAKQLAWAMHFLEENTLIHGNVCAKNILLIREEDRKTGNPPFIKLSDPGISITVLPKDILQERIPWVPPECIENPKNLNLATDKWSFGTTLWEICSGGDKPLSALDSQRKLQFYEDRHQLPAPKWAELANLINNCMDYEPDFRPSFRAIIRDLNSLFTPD", "type": "binding"}, "[2]": {"tested_on": "HEL cells (containing the JAK2 V617F mutant)", "test": "STAT5 phosphorylation in HEL cells, Western blot", "type": "cell-based, Human", "settings": "for concentration up to which no inhibition of STAT5 phosphorylation was observed: 11: 1-hour incubation"}, "[3]": {"tested_on": "TF-1 cells (containing wild-type JAK2)", "test": "STAT5 phosphorylation in TF-1 cells, Western blot", "type": "cell-based, Human", "settings": "1 hour"}, "[4]": {"tested_on": "TF-1 cells starved of cytokine (WT JAK2)", "test": "Stimulation of STAT5 phosphorylation in TF-1 cells starved of cytokine", "type": "cell-based, Human", "settings": "0.1, 0.5, and 2 μM"}}, "note": "pIC50: −log10 of the molar value.", "data": [{"smiles": "Nc1nc(Nc2ccc(S(N)(=O)=O)cc2)nn1C(=O)Nc1ccc(-c2ccccc2)cc1", "note": "[Compound 9, N-([1,1’-biphenyl]-4-yl)-5-amino-3-((4-sulfamoylphenyl)amino)-1H-1,2,4-triazole-1-carboxamide]", "values": [{"measurement": "PAMPA permeability, in words", "setting": "[1]", "result": "essentially impermeable"}, {"measurement": "loss in binding affinity compared to 7", "setting": "JAK2 JH2 WT; JAK2 JH2", "result": "about 3 orders of magnitude"}]}, {"smiles": "Nc1nc(Nc2ccc(S(N)(=O)=O)cc2)nn1C(=O)Nc1ccc(-c2cc(OCc3ccccc3)cc(C(=O)O)c2)cc1", "note": "[Compound 12, 4’-(5-amino-3-((4-sulfamoylphenyl)amino)-1H-1,2,4-triazole-1-carboxamido)-5-(benzyloxy)-[1,1’-biphenyl]-3-carboxylic acid]", "values": [{"measurement": "increase in permeability compared to its isomer 11", "setting": "[1]; PAMPA", "result": 3, "unit": "fold"}, {"measurement": "weaker binder than 11", "setting": "JAK2 JH2 WT; WT JAK2 JH2", "result": 2, "unit": "fold"}, {"measurement": "concentration up to which no inhibition of STAT5 phosphorylation was observed", "setting": "[2]; HEL cells, Western blot", "result": "> 25", "unit": "µM"}]}, {"smiles": "O=C(N[C@H](CO)[C@H](O)c1ccc([N+](=O)[O-])cc1)C(Cl)Cl", "note": "[chloramphenicol, reference compound]", "values": [{"measurement": "Papp at 18 h", "setting": "[1]; PAMPA", "result": "4.36 to 4.99", "unit": "×10⁻⁶ cm/s"}]}, {"smiles": "COC(=O)c1cccc(-c2ccc(NC(=O)n3nc(Nc4ccc(S(N)(=O)=O)cc4)nc3N)cc2)c1", "note": "[Compound 8, Methyl 4’-(5-amino-3-((4-sulfamoylphenyl)amino)-1H-1,2,4-triazole-1-carboxamido)-[1,1’-biphenyl]-3-carboxylate]", "values": [{"measurement": "PAMPA permeability, in words", "setting": "[1]", "result": "essentially impermeable"}, {"measurement": "loss in binding affinity compared to 7", "setting": "JAK2 JH2 WT; JAK2 JH2", "result": "about 3 orders of magnitude"}]}, {"smiles": "CNC(=O)c1ccc(Nc2nc(N)n(C(=O)Nc3ccc(-c4cc(OCc5ccccc5)cc(C(=O)O)c4)cc3)n2)cc1", "note": "[Compound 14, 4’-(5-amino-3-((4-(methylcarbamoyl)phenyl)amino)-1H-1,2,4-triazole-1-carboxamido)-5-(benzyloxy)-[1,1’-biphenyl]-3-carboxylic acid]", "values": [{"measurement": "improved binding affinity compared to 12", "setting": "JAK2 JH2 WT; WT JAK2 JH2", "result": 2, "unit": "fold"}, {"measurement": "concentration up to which no inhibition of STAT5 phosphorylation was observed", "setting": "[2]; HEL cells, Western blot", "result": "> 30", "unit": "µM"}]}, {"smiles": "Nc1nc(Nc2ccc(S(N)(=O)=O)cc2)nn1C(=O)Nc1ccc(-c2cccc(C(=O)O)n2)cc1", "note": "[Compound 3, 6-(4-(5-amino-3-((4-sulfamoylphenyl)amino)-1H-1,2,4-triazole-1-carboxamido)phenyl)picolinic acid]", "values": [{"measurement": "loss in binding affinity compared to 2", "setting": "JAK2 JH2 WT; JAK2 JH2", "result": 3, "unit": "fold"}]}, {"smiles": "Cn1c(=O)c2[nH]cnc2n(C)c1=O.O", "note": "[theophylline, reference compound]", "values": [{"measurement": "Papp at 18 h", "setting": "[1]; PAMPA", "result": "0.27 to 0.33", "unit": "×10⁻⁶ cm/s"}]}, {"smiles": "Nc1nc(Nc2ccc(S(N)(=O)=O)cc2)nn1C(=O)c1c(F)cccc1F", "note": "[Compound 1, JNJ7706621, reference compound]", "values": [{"measurement": "pIC50", "setting": "[2]; Homo sapiens, HEL, read-out: IC50 (inhibition of STAT-5 phosphorylation)", "result": "5.30 to 6.00"}]}, {"smiles": "CNC(=O)c1ccc(Nc2nc(N)n(C(=O)Nc3ccc(-c4ccc(OCc5ccccc5)c(C(=O)O)c4)cc3)n2)cc1", "note": "[Compound 13, 4’-(5-amino-3-((4-(methylcarbamoyl)phenyl)amino)-1H-1,2,4-triazole-1-carboxamido)-4-(benzyloxy)-[1,1’-biphenyl]-3-carboxylic acid]", "values": [{"measurement": "reduced permeability (compared to 11)", "setting": "[1]; PAMPA", "result": "~2", "unit": "fold"}, {"measurement": "stronger binding for WT JH2 than 2", "setting": "JAK2 JH2 WT", "result": 10, "unit": "fold"}, {"measurement": "inhibition of STAT-5 phosphorylation", "setting": "[2]; HEL cells, 20 μM, Western blot", "result": "complete inhibition"}, {"measurement": "concentration range in which inhibition of STAT5 phosphorylation was observed", "setting": "[2]; HEL cells, tested at 2-30 μM, 1 hour", "result": "10 to 20", "unit": "µM"}, {"measurement": "inhibition of STAT-5 phosphorylation", "setting": "[3]; 20 μM, Western blot", "result": "complete inhibition"}, {"measurement": "concentration range in which inhibition of STAT5 phosphorylation was observed", "setting": "[3]; tested at 2-30 μM", "result": "10 to 20", "unit": "µM"}, {"measurement": "stimulation of STAT5 phosphorylation", "setting": "[4]", "result": "no stimulation of STAT5 phosphorylation was observed"}]}, {"smiles": "Nc1nc(Nc2ccc(S(N)(=O)=O)cc2)nn1C(=O)Nc1ccc(-c2cccc(C(=O)O)c2)cc1", "note": "[Compound 7, 4’-(5-amino-3-((4-sulfamoylphenyl)amino)-1H-1,2,4-triazole-1-carboxamido)-[1,1’-biphenyl]-3-carboxylic acid]", "values": [{"measurement": "PAMPA permeability, in words", "setting": "[1]", "result": "essentially impermeable"}]}, {"smiles": "Nc1nc(Nc2ccc(S(N)(=O)=O)cc2)nn1C(=O)Nc1ccc(-c2ccc(OCc3ccccc3)c(C(=O)O)c2)cc1", "note": "[Compound 11, 4’-(5-amino-3-((4-sulfamoylphenyl)amino)-1H-1,2,4-triazole-1-carboxamido)-4-(benzyloxy)-[1,1’-biphenyl]-3-carboxylic acid]", "values": [{"measurement": "concentration up to which no inhibition of STAT5 phosphorylation was observed", "setting": "[2]; HEL cells, Western blot", "result": "> 40", "unit": "µM"}]}]}
